PMC10901353, “Identification of a potent and selective LAPTc inhibitor by RapidFire-Mass Spectrometry, with antichagasic activity” (PLOS Neglected Tropical Diseases, 2024)
“And” between values parts separate entries of the source, which are not always exact repeats. Equal entries are not always repeated. Where two headings read alike, the source gives them in different places.

Legend:
[1] = target: T1, LAPTc (acidic M17 leucyl-aminopeptidase from T. cruzi) (Trypanosoma cruzi, UniProt V5BWE3); assay: High-throughput single point screening for LAPTc inhibitors by RapidFire-MS; type: biochemical; settings: primary screen, 30 μM, single replicate; read-out: Percent Inhibition
T1 sequence (V5BWE3 entry or part of it): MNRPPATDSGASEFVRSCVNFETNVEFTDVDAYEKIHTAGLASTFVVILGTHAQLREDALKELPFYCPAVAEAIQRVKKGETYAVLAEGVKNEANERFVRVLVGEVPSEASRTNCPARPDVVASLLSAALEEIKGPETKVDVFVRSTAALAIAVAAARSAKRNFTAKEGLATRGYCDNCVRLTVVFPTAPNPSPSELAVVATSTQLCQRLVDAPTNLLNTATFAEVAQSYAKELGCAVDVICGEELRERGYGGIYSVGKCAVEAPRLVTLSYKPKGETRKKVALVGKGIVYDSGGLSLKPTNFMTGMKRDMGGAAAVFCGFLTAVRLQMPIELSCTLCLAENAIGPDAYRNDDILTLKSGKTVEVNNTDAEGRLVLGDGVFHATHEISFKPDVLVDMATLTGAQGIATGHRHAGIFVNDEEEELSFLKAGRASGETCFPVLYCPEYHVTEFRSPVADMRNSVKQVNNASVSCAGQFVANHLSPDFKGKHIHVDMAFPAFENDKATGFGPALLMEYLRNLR
Protocol: (§1) This assay was previously described. The assay was performed in 384-well clear F-bottom polypropylene plates with a final reaction volume of 15 μL. The reaction mixture contained 7.5 μL LAPTc in 50 mM Tris-HCl, pH 7.5, 0.005% NP-40 and 7.5 μL LSTVIVR peptide substrate (Cambridge Research Biochemicals, Billingham, UK) in the same buffer was added to start the reaction. The reaction was performed at room temperature for 40 min and then stopped with 85 μL 1% formic acid containing 0.15 mg/mL STVIVR* internal standard (Cambridge Research Biochemicals, Billingham, UK).
Single point screening of a library of 3329 compounds was performed in 384-well clear plates (Greiner 781101) at room temperature. Test compounds (45 nL in DMSO) were transferred to assay plates by an ECHO 550 acoustic dispenser (Labcyte). LAPTc was tested at 3 nM with 150 μM (approximately the value of the apparent Michaelis-Menten constant -appKM- [16]) LSTVIVR peptide substrate in a 40 min reaction. Before addition of substrate, LAPTc was preincubated with 45 nL compounds or DMSO for 15 min. Compounds, dissolved in DMSO, were tested at 30 μM. Controls without compound (the same volume of DMSO, 0% inhibitory effect) and without enzyme and compound (100% inhibitory effect) were prepared. The experiment was performed without replicates. The remaining experimental conditions were maintained as previously described. Data were processed and analysed through ActivityBase XE (IDBS). The selection criterion for hits in this single point screen was percent inhibition larger than the mean plus three standard deviations. All primary screening data are available in ChEMBL (see Data Availability statement).

[2] = target: T1, LAPTc (acidic M17 leucyl-aminopeptidase from T. cruzi); assay: Dose-response studies for LAPTc inhibition by RapidFire-MS; type: biochemical; settings: for Emax: read-out: Maximum Effect; for Hit Confirmation: whether primary screen hit confirmed in potency experiment
Protocol: as §1
To generate half-maximum inhibitory concentration (IC50) data for LAPTc, 10-point dose-response curves with 100 μM as highest concentration and 1:2 dilution in DMSO (0.195–100 μM range) were prepared in 384 well plates. All other experimental conditions were as described above. All IC50 curve fitting was performed by four-parameter logistic dose-response curve fit using ActivityBase XE (IDBS). At least three replicates were generated for each hit compound.

[3] = tested on: intracellular T. cruzi amastigotes; assay: T. cruzi intracellular assay (high-content imaging, infected Vero cells); type: cell-based, Trypanosoma cruzi; design: Max Effect (T. cruzi): unit not given here; settings: for EC50 / Emax: Trypanosoma cruzi, Vero; for Emax: read-out: Max Effect (T. cruzi)
Protocol: T. cruzi parasite, TcI strain Silvio X10/7 subclone A1 [34] was maintained in culture as previously described. Parasites were maintained as amastigotes by passaging on a weekly basis in Vero cells. Culture maintenance infections were carried out at an MOI (multiplicity of infection) of 1.5.
(§2) This assay was performed as described with the only modification that treatment was 96 h instead of 72 h. Briefly, Vero cells were infected overnight with tissue culture derived T. cruzi trypomastigotes in T225 tissue culture flasks (MOI 5). Any remaining free trypomastigotes were washed away with serum free MEM and the infected Vero cells were harvested by trypsinisation. Compounds (250 nL in DMSO) were dispensed using LabCyte ECHO (Beckman Coulter Life Sciences, USA) into each well of Corning black flat bottomed 384-well plates (Corning, USA). […] The infected Vero cells were then plated into the plates containing the compounds, at 4,000 cells per well in MEM media with 1% FCS. After 96 h incubation at 37°C in presence of 5% CO2, the plates were fixed with 4% formaldehyde for 20 min at room temperature and stained with 5 μg/mL Hoechst 33342. The plates were imaged on a Perkin Elmer Operetta high-content imaging system using a 20× objective. Images were analyzed using the Columbus system (Perkin Elmer). The algorithm first identified the Vero nuclei followed by demarcation of the cytoplasm and identification of intracellular amastigotes. This algorithm reported percent infected Vero cell and total number of Vero cells. All potency determinations were carried out in at least three independent replicates and are reported as pEC50 +/- standard deviation. pEC50 = -log(EC50[M]).

[4] = Cytotoxicity against infected Vero host cells in T. cruzi intracellular assay; type: cell-based, African green monkey; design: Max Effect (Vero): unit not given here; settings: African green monkey, Vero cells infected with T. cruzi; infected Vero host cells, 96 h; read-out: pCC50 (Vero) +/- StDev (converted)
Protocol: (§3) Briefly, these cells were maintained at 37°C and 5% CO2 in MEM supplemented with 10% FCS, sub-culturing every 2–3 days at a ratio of 1:5 after 5 min treatment with Trypsin-EDTA (Gibco).
as §2, with “After 96 h incubation at 37°C in presence of 5% CO2, the plates were fixed with 4% formaldehyde for 20 min at room temperature and stained with 5 μg/mL Hoechst 33342.” left out

Vero cells = assay: as above; type: cell-based, African green monkey; design: Max Effect (Vero): unit not given here; settings: individual replicates
Protocol: as §3
as §2, with “After 96 h incubation at 37°C in presence of 5% CO2, the plates were fixed with 4% formaldehyde for 20 min at room temperature and stained with 5 μg/mL Hoechst 33342.” left out

[5] = Cytotoxicity assay on human HepG2 cells (resazurin); type: cell-based; settings: human, HepG2 cells, 72 h, two independent experiments; read-out: pCC50 (HepG2) (converted)
HepG2 cells = assay: as above; type: cell-based; settings: individual replicates
[6] = Initial hit confirmation, single replicate
[7] = Initial hit confirmation, single replicate, read-out: pIC50 (converted)
[8] = Replicate data generation, individual replicates
[9] = Replicate data generation, individual replicates, read-out: pIC50 (converted)
[10] = average of four independent replicates, read-out: pIC50 +/- StDev (LAPTc) (converted)
[11] = 96 h, four independent experiments, read-out: pEC50 (T. cruzi) +/- StDev (converted)
[12] = individual replicates, read-out: pEC50 (T. cruzi) (converted)

Row | SMILES | inhibition at 30 µM [1] | Hill Slope [2, 6] | Emax [2, 6] | IC50 [2, 7] | Hill Slope [2, 8] | Maximum Effect [2, 8] | Emax [2, 8] | IC50 [2, 9] | IC50 [2, 10] | Hit Confirmation [2] | EC50 [3, 11] | EC50 [3, 12] | Max Effect (T. cruzi) ([3]; individual replicates) | CC50 at 96 h [4] | Max Effect (Vero) (Vero cells) | pEC50 (Vero) (Vero cells) | CC50 at 72 h [5] | Max Effect (HepG2) (HepG2 cells) | pEC50 (HepG2) (HepG2 cells) | Emax ([3]; individual replicates) | further results
1 | CC1c2ccsc2CCN1C(=O)c1ccc(-n2cnnn2)cc1 (stereo not drawn) [Compound 2] | 62% | 1.7 | 77% | 31.6 µM | 1.1 and 1.2 | 86% | 87% | 15.8 µM | 19.5 µM | confirmed | > 50.1 µM | > 50.1 µM | 42 and 15 and 37 and 27 | > 50.1 µM | 26 and 27 and 21 and 22 | < 4.3 | > 100 µM | 4 and 3 | < 4.0 | – | –
2 | Cc1ccc2nc(-c3ccc(NS(=O)(=O)c4cc(C(=O)O)c(Cl)cc4Cl)cc3)sc2c1 [Compound 5] | 58% | 1.2 | 96% | 12.6 µM | 4.3 and 4.2 and 3.9 | 98% | 99% | 7.94 µM | 8.91 µM | confirmed | > 50.1 µM | > 50.1 µM | 45 | 33.1 µM | 71 and 82 and 77 | 4.4 and 4.6 and 4.5 | > 100 µM | 4.7 and 1.78 | < 4.0 | 44% | –
3 | O=C(CN1NS(=O)(=O)c2ccccc2C1=O)NCCc1ccccc1 [Compound 6] | 56% | 0.543 | 68% | 20 µM | 0.9 and 0.54 and 0.7 | 72% and 73% | 76% | 7.94 µM and 12.6 µM and 5.01 µM | 9.77 µM | confirmed | > 50.1 µM | > 50.1 µM | 20 and 14 and 16 | > 50.1 µM | 8.54 and 13 and 11 and 18 | < 4.3 | > 100 µM | 3.48 and 3.47 | < 4.0 | 11% | –
4 | Nc1[nH]cnc1-c1nc(-c2ccccc2)cs1 [Compound 7] | 56% | 1.2 | 90% | 2 µM | 1.7 and 1.5 | 50% and 61% | 53% | – | 3.89 µM | confirmed | 38.9 µM | 31.6 µM | 59 and 37 and 30 | 10.2 µM | 78 and 73 | 5.1 and 4.8 and 5.2 | > 100 µM | 3 and 4 | < 4.0 | – | pEC50 (T. cruzi) ([3]; individual replicates): < 4.3 and 4.3
5 | Cn1ccnc1C(NS(=O)(=O)c1ccc(C#N)cc1)c1cccc(F)c1 (stereo not drawn) [Compound 8] | 49% | 1.0 | 89% | 12.6 µM | 1.5 and 1.6 and 1.3 | 82% | 79% | 12.6 µM | – | confirmed | > 50.1 µM | > 50.1 µM | 31 and 26 and 25 | > 50.1 µM | 18 and 29 and 34 and 32 | < 4.3 | > 100 µM | 6.44 and 10 | < 4.0 | 29% | –
6 | O=C(NCC(=O)N1CCc2ccccc2C1)C1CCCCC1 [Compound 9] | 49% | 1.7 | 54% | 15.8 µM | 0.749 and 0.7 and 0.655 | 67% and 63% | 64% | 39.8 µM and 31.6 µM | 28.8 µM | confirmed | > 50.1 µM | > 50.1 µM | 27 and 21 and 30 | > 50.1 µM | 7 and 4 and 15 and 11 | < 4.3 | > 100 µM | 3.76 and 2.85 | < 4.0 | 31% | –
